Experiments:
[1] = molecular target: Motilin receptor (Homo sapiens) (UniProt O43193); test: motilin (h) Eurofins-Cerep Cellular and Nuclear Receptor Functional Assays; settings: Compound concentration 10.0 uM
[2] = molecular target: T1, Muscarinic acetylcholine receptor M4 (Homo sapiens) (UniProt P08173); test: M4 (h) Eurofins-Cerep Cellular and Nuclear Receptor Functional Assays; settings: Compound concentration 10.0 uM
T1 sequence (whole entry): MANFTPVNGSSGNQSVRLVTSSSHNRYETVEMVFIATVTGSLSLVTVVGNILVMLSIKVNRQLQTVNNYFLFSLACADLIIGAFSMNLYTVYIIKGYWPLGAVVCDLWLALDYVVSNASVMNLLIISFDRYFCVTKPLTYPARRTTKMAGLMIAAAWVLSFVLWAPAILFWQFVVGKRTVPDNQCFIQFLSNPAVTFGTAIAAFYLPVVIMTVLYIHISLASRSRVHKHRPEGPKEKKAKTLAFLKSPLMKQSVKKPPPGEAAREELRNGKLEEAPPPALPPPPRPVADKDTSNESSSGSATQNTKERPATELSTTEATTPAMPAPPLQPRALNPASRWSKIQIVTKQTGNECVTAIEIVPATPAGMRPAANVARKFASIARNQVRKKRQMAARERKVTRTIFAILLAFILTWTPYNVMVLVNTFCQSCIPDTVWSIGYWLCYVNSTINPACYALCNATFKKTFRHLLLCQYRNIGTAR

[3] = molecular target: 5-hydroxytryptamine receptor 2B (Homo sapiens) (UniProt P41595); test: 5-HT2B (h) Eurofins-Cerep Cellular and Nuclear Receptor Functional Assays; settings: Compound concentration 10.0 uM
Chain of 5-hydroxytryptamine receptor 2B (Homo sapiens) (P41595 whole entry): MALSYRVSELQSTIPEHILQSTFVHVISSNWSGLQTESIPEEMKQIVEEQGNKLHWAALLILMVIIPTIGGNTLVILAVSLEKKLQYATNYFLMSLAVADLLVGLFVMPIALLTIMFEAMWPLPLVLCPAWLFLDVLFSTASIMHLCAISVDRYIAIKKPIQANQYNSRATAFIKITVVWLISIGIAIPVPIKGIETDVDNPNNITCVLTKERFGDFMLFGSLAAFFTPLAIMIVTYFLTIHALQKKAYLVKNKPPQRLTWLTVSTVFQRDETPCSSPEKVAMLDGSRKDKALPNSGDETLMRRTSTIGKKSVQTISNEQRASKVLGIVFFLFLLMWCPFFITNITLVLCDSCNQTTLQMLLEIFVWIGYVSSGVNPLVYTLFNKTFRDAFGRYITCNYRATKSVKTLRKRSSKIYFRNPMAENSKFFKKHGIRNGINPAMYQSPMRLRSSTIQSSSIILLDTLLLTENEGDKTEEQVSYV

[4] = molecular target: RAC-alpha serine/threonine-protein kinase (Homo sapiens) (UniProt P31749); settings: Compound concentration 1000.0 nM
[5] = molecular target: RAC-beta serine/threonine-protein kinase (Homo sapiens) (UniProt P31751); settings: Compound concentration 1000.0 nM
[6] = molecular target: Bone morphogenetic protein receptor type-2 (Homo sapiens) (UniProt Q13873); settings: Compound concentration 1000.0 nM
[7] = molecular target: Serine/threonine-protein kinase B-raf (Homo sapiens) (UniProt P15056); settings: Compound concentration 1000.0 nM
Chain of Serine/threonine-protein kinase B-raf (Homo sapiens) (P15056 whole entry): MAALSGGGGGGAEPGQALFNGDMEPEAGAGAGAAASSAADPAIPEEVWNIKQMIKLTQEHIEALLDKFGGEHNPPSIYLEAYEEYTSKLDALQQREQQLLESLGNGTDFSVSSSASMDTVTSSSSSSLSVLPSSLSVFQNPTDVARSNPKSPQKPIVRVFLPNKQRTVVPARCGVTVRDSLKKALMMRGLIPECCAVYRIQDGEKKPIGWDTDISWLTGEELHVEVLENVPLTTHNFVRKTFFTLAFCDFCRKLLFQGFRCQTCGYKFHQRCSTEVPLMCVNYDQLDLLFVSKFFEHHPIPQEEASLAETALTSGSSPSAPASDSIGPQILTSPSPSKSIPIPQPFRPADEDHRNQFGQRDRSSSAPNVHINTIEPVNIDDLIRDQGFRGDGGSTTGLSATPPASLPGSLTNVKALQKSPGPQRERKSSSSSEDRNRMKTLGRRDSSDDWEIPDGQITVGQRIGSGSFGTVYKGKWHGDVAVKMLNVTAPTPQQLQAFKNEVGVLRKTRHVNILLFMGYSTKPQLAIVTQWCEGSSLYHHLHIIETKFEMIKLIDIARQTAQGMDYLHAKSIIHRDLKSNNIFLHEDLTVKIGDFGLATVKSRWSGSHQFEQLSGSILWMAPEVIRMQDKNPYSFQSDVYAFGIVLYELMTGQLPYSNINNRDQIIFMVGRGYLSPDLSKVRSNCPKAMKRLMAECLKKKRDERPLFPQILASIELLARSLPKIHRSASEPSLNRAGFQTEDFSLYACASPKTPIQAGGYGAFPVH

[8] = molecular target: Serine/threonine-protein kinase BRSK2 (Homo sapiens) (UniProt Q8IWQ3); settings: Compound concentration 1000.0 nM
Chain of Serine/threonine-protein kinase BRSK2 (Homo sapiens) (Q8IWQ3 whole entry): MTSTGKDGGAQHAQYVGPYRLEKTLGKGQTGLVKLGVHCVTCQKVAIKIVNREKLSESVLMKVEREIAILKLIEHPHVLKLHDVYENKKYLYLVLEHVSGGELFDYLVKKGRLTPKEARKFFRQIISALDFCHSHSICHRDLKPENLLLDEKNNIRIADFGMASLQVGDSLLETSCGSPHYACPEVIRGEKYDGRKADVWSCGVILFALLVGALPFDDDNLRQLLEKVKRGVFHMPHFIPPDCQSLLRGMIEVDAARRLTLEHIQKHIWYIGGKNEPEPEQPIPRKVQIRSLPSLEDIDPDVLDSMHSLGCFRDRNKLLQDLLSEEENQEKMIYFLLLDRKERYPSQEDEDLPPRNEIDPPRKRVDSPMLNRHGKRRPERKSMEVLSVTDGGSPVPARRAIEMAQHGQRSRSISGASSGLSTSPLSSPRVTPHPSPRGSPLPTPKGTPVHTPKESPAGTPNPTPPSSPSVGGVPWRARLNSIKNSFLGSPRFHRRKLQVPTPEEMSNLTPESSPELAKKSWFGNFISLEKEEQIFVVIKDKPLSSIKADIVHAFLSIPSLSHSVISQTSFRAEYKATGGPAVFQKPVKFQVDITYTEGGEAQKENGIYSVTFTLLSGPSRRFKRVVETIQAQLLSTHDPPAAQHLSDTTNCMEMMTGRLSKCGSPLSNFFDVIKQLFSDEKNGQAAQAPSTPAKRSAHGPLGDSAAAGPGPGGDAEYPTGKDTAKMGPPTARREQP

[9] = molecular target: Calcium/calmodulin-dependent protein kinase type II subunit gamma (Homo sapiens) (UniProt Q13555); settings: Compound concentration 1000.0 nM
[10] = molecular target: Cyclin-dependent kinase 13 (Homo sapiens) (UniProt Q14004); settings: Compound concentration 1000.0 nM
[11] = molecular target: Cyclin-dependent kinase-like 5 (Homo sapiens) (UniProt O76039); settings: Compound concentration 1000.0 nM
[12] = molecular target: Serine/threonine-protein kinase DCLK2 (Homo sapiens) (UniProt Q8N568); settings: Compound concentration 1000.0 nM
[13] = molecular target: Serine/threonine-protein kinase MRCK gamma (Homo sapiens) (UniProt Q6DT37); settings: Compound concentration 1000.0 nM
[14] = molecular target: Ephrin type-A receptor 1 (Homo sapiens) (UniProt P21709); settings: Compound concentration 1000.0 nM
Chain of Ephrin type-A receptor 1 (Homo sapiens) (P21709 whole entry): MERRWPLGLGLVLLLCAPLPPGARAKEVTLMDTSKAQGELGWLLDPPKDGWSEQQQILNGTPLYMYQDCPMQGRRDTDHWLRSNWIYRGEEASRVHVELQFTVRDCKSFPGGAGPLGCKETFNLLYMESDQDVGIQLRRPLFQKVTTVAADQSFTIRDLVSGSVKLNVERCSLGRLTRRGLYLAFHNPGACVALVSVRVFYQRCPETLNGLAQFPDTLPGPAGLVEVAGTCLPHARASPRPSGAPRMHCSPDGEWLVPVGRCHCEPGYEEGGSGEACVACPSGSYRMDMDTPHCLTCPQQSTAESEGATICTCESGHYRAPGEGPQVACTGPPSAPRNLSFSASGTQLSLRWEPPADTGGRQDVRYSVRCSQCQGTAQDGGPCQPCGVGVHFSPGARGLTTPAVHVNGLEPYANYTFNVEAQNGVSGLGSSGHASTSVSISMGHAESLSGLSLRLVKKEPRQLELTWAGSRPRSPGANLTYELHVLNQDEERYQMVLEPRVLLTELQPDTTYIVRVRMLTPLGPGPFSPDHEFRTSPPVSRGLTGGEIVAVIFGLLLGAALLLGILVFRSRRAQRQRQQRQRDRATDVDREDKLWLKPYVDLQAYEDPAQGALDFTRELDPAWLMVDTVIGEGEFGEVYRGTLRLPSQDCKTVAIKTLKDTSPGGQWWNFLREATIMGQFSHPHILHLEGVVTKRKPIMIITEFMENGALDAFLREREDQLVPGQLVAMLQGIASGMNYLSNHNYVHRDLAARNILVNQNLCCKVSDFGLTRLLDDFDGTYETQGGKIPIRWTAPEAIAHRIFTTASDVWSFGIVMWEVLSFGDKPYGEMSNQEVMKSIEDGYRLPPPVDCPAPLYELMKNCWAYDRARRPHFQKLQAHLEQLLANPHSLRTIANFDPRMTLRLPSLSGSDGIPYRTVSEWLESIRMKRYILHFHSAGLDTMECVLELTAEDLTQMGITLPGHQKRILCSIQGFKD

[15] = molecular target: Tyrosine-protein kinase Fes/Fps (Homo sapiens) (UniProt P07332); settings: Compound concentration 1000.0 nM
[16] = test system: eIF-2-alpha kinase GCN2 (Homo sapiens), Q9P2K8 [S808G]; settings: Compound concentration 1000.0 nM
[17] = molecular target: G protein-coupled receptor kinase 3 (Homo sapiens) (UniProt P35626); settings: Compound concentration 1000.0 nM
[18] = molecular target: Glycogen synthase kinase-3 beta (Homo sapiens) (UniProt P49841); settings: Compound concentration 1000.0 nM
[19] = molecular target: Mitogen-activated protein kinase kinase kinase kinase 3 (Homo sapiens) (UniProt Q8IVH8); settings: Compound concentration 1000.0 nM
[20] = test system: Hepatocyte growth factor receptor (Homo sapiens), P08581 [Y1235D]; settings: Compound concentration 1000.0 nM
[21] = molecular target: Mitogen-activated protein kinase kinase kinase 9 (Homo sapiens) (UniProt P80192); settings: Compound concentration 1000.0 nM
Chain of Mitogen-activated protein kinase kinase kinase 9 (Homo sapiens) (P80192 whole entry, looked up, the tested form may be a part): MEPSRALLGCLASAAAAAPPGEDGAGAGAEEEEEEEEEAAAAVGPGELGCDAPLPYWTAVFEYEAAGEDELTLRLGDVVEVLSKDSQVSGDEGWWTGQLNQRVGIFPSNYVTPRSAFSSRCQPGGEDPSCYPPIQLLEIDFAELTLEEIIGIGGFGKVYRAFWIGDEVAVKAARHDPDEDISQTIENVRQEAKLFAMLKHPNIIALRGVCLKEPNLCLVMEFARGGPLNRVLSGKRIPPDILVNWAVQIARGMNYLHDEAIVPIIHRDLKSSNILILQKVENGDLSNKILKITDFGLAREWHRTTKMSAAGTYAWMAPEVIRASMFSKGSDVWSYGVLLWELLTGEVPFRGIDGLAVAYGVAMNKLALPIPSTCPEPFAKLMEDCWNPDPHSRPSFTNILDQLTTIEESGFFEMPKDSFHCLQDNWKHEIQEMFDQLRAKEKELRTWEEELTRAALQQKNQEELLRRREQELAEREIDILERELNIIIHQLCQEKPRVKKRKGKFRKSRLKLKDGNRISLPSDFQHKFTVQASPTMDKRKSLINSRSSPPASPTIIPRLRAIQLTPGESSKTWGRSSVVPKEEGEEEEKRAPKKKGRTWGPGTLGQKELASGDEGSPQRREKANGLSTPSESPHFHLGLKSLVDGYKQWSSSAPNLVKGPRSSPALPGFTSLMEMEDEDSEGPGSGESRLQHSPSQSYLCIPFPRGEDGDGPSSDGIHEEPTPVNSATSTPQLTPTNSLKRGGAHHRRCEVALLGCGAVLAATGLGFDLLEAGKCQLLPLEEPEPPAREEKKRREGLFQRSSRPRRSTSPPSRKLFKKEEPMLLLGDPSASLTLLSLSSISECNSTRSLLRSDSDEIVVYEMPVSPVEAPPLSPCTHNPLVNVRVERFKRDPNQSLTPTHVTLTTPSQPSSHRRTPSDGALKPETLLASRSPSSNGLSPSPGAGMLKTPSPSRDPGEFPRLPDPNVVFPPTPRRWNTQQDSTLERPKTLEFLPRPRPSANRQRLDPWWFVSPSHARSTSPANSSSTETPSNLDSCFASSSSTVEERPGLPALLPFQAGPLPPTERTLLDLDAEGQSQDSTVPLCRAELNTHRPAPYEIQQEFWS

[22] = molecular target: Phosphatidylinositol 4-phosphate 3-kinase C2 domain-containing subunit beta (Homo sapiens) (UniProt O00750); settings: Compound concentration 1000.0 nM
[23] = molecular target: Phosphatidylinositol 5-phosphate 4-kinase type-2 beta (Homo sapiens) (UniProt P78356); settings: Compound concentration 1000.0 nM
[24] = molecular target: Phosphatidylinositol 5-phosphate 4-kinase type-2 gamma (Homo sapiens) (UniProt Q8TBX8); settings: Compound concentration 1000.0 nM
[25] = molecular target: Ribosomal protein S6 kinase alpha-3 (Homo sapiens) (UniProt P51812); settings: Compound concentration 1000.0 nM
[26] = molecular target: Ribosomal protein S6 kinase alpha-6 (Homo sapiens) (UniProt Q9UK32); settings: Compound concentration 1000.0 nM
[27] = molecular target: Serine/threonine-protein kinase 16 (Homo sapiens) (UniProt O75716); settings: Compound concentration 1000.0 nM
[28] = molecular target: Serine/threonine-protein kinase 33 (Homo sapiens) (UniProt Q9BYT3); settings: Compound concentration 1000.0 nM
[29] = molecular target: Serine/threonine-protein kinase WNK1 (Homo sapiens) (UniProt Q9H4A3); settings: Compound concentration 1000.0 nM
[30] = molecular target: 5-hydroxytryptamine receptor 2C (Homo sapiens) (UniProt P28335); settings: Compound concentration 10.0 uM
[31] = molecular target: 5-hydroxytryptamine receptor 7 (Homo sapiens) (UniProt P34969); settings: Compound concentration 10.0 uM
Chain of 5-hydroxytryptamine receptor 7 (Homo sapiens) (P34969 whole entry): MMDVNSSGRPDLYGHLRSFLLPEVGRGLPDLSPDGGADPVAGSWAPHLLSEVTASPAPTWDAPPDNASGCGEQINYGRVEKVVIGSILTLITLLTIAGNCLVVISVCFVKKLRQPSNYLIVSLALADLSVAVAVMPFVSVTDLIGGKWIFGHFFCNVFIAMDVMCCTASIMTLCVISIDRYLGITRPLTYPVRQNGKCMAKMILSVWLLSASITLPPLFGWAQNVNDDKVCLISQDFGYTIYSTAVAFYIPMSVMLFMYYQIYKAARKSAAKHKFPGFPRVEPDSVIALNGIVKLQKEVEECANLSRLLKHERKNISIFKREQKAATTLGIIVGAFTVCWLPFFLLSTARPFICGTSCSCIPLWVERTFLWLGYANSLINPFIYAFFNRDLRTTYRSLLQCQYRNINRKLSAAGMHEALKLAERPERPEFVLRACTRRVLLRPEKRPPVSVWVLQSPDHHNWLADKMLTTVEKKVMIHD

[32] = molecular target: D(1A) dopamine receptor (Homo sapiens) (UniProt P21728); settings: Compound concentration 10.0 uM
[33] = molecular target: D(3) dopamine receptor (Homo sapiens) (UniProt P35462); settings: Compound concentration 10.0 uM

Chain of Motilin receptor (Homo sapiens) (O43193 whole entry): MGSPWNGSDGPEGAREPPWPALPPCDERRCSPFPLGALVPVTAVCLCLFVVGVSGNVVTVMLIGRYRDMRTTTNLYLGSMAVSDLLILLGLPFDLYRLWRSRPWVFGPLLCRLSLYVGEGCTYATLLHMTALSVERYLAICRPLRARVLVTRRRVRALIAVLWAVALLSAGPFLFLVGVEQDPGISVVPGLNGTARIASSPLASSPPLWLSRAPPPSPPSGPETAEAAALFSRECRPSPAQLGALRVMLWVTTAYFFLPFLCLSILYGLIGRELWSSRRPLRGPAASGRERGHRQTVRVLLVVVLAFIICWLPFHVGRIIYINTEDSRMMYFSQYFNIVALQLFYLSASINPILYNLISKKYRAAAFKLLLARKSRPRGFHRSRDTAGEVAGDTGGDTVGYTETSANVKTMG

| SMILES | % Inhibition of Control Agonist Response (Mean n=2) [1] | % of Control Agonist Response (Mean n=2) [1] | % Inhibition of Control Agonist Response (Mean n=2) [2] | % of Control Agonist Response (Mean n=2) [2] | % Inhibition of Control Agonist Response (Mean n=2) [3] | % of Control Agonist Response (Mean n=2) [3] | residual activity [4] | residual activity [5] | residual activity [6] | residual activity [7] | residual activity [8] | residual activity [9] | residual activity [10] | residual activity [11] | residual activity [12] | residual activity [13] | residual activity [14] | residual activity [15] | residual activity [16] | residual activity [17] | also measured |
| --- | --- | --- | --- | --- | --- | --- | --- | --- | --- | --- | --- | --- | --- | --- | --- | --- | --- | --- | --- | --- | --- |
| O=C(N1CCS(=O)(=O)CC1)N1C[C@H](c2ccc(OC(F)(F)F)cc2)C[C@H](c2nc(C3CC3)no2)C1 [BAY-386] | 29.2% | 16.7% | 5.8% | -15% | 7% | 1.6% | 96% | 90% | 100% | 100% | 100% | 100% | 100% | 100% | 0% | 100% | 100% | 100% | 100% | 100% | residual activity [18]: 100%; residual activity [19]: 100%; residual activity [20]: 100%; residual activity [21]: 100%; residual activity [22]: 100%; residual activity [23]: 73%; residual activity [24]: 96%; residual activity [25]: 100%; residual activity [26]: 100%; residual activity [27]: 100%; residual activity [28]: 99%; residual activity [29]: 100%; inhibition [30]: -4.94%; inhibition [31]: -0.77%; inhibition [32]: 3.2%; inhibition [33]: 5.09% |
| Cc1noc([C@H]2C[C@@H](c3ccc(C(F)(F)F)cc3)CN(C(=O)N3CCS(=O)(=O)C3)C2)n1 [BAY-448] | 0.9% | 6.9% | 1.9% | 25.1% | -3% | 0.4% | 90% | 96% | 100% | 97% | 100% | 100% | 96% | 100% | 100% | 100% | 89% | 100% | 28% | 100% | residual activity [18]: 92%; residual activity [19]: 100%; residual activity [20]: 100%; residual activity [21]: 100%; residual activity [22]: 66%; residual activity [23]: 100%; residual activity [24]: 89%; residual activity [25]: 100%; residual activity [26]: 100%; residual activity [27]: 100%; residual activity [28]: 100%; residual activity [29]: 86%; inhibition [30]: 37.1%; inhibition [31]: 21.8%; inhibition [32]: 10.6%; inhibition [33]: -2.97% |

Reference: ChEMBL document CHEMBL4507269, “Data for DCP probe BAY-386” (2021)
